Data published in US7148244B2, “Medicines in controlling Vpr function” (Nippon Shinyaku Co. Ltd., priority 2001, dated 2006).

Columns and labels:
HeLa = assay: In vitro functional antagonism between flavonoid (quercetin) and compound; microscopic observation of cell morphologies; type: cell-based
Description: Three types of cells were employed (HeLa, ECV304, and HBL-100, purchased from ATCC), and for each type, 1×10^5 cells were seeded in a 10 cm dish and cultured in D-MEM/F-12 medium (Gibco BRL) for 18–20 hours. On the next day, the medium was changed to the same medium containing 1.0 μM quercetin (Sigma; hereinafter abbreviated to QCT), followed by culturing for an additional 2 days. The compound A was then added at a concentration of 600 nM, and 72 hours later observations under a microscope were made of cell morphologies.

FLAG-fused Vpr = target: T1, FLAG-fused Vpr (Human immunodeficiency virus type 1 group M subtype B, UniProt P12520); assay: In vitro direct binding of Vpr and compound; affinity precipitation with compound-immobilized Sepharose beads; set-up: species or system HIV
T1 construct: made in house; host or cells: TNT-coupled wheat germ extract in vitro transcription/translation (Promega), with 35S-methionine
T1 sequence (P12520 whole entry, the tested form may be a part): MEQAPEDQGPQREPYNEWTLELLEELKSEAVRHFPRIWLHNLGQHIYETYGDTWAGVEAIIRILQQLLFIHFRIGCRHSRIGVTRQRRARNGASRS
Excerpt: A Vpr gene fused to N-terminal FLAG (SEQ ID NO:1) was obtained by PCR (polymerase chain reaction) using as a template pBT-1 (purchased from ATCC) into which the HIV genome without env had been incorporated. Primers utilized were synthetic DNAs having the following sequences (SEQ ID NOs:1 and 2). N-terminal FLAG: Asp Tyr Lys Asp Asp Asp Asp Lys (SEQ ID NO:1);
The DNA fragment of interest (300 bp) was recovered from PCR reaction products by agarose gel electrophoresis, and then cloned into the pGEM-T vector (Promega). This fragment was base analyzed on both plus and minus strands and was verified to correspond to the intended fused Vpr. The vector into which the Vpr gene fused to FLAG has been incorporated is hereinafter referred to as pGEM-T/Vpr-wt. […]
(§1) Preparation of FLAG-fused Vpr was performed by transcription and translation from the T7 promoter employing the TNT-coupled wheat germ extract in vitro transcription/translation system (wheat germ extract transcription/translation system) (Promega). […] Whether these products were Vpr was analyzed by carrying out western blotting according to typical procedures employing an anti-FLAG antibody after samples resulting from transcription and translation in the absence of the radiolabel were denatured with SDS (sodium dodecylsulfate). […]

FLAG-fused VprΔC = target: T2, FLAG-fused VprΔC (Human immunodeficiency virus type 1 group M subtype B, UniProt P12520); assay: as above; set-up: species or system HIV; settings: FIG. 2 (2) lane 5
T2 construct: made in house; host or cells: TNT-coupled wheat germ extract in vitro transcription/translation (Promega), with 35S-methionine
T2 sequence (P12520 1-72, stated change not applied): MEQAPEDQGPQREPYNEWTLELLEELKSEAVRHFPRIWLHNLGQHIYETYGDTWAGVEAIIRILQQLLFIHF
Excerpt: The DNA fragment of interest (300 bp) was recovered from PCR reaction products by agarose gel electrophoresis, and then cloned into the pGEM-T vector (Promega). This fragment was base analyzed on both plus and minus strands and was verified to correspond to the intended fused Vpr. The vector into which the Vpr gene fused to FLAG has been incorporated is hereinafter referred to as pGEM-T/Vpr-wt. Furthermore, using this pGEM-T/Vpr-wt as a template, a second Vpr gene fused to FLAG in which a C-terminal region of Vpr (a.a. 73–96) was deleted was obtained by PCR utilizing primers shown below (SEQ ID Nos:4 and 5).
This fused gene was cloned into the pGEM-T vector as described above, and the resulting vector is hereinafter referred to as pGEM-T/VprΔC. […]
as §1

Vpr = Vpr (Human immunodeficiency virus type 1 group M subtype B, UniProt P12520); settings: literature, Shimura M. et al. 1999; cited from earlier work
Vpr, sequence (P12520 whole entry): as the sequence (P12520 whole entry, the tested form may be a part) above

SMILES | effects of the compound after pre-treatment with quercetin (HeLa; HeLa cells, 1.0 μM quercetin for 48 hours, then compound 600 nM for 72 hours) | cell cycle state, cell morphology under a microscope (HeLa; HeLa cells, compound 600 nM alone, 72 hours, compared with the control group) | number of multinucleate cells having plural nuclei within single cells (HeLa; compound 600 nM alone, 72 hours, compared with the control group) | binding of radiolabeled FLAG-fused Vpr to compound-immobilized beads (FLAG-fused Vpr; affinity precipitation, FIG. 2 (2) lane 3) | region of Vpr to which the compound binds (FLAG-fused Vpr; concluded from binding to Vpr and no binding to VprΔC) | binding of radiolabeled FLAG-fused VprΔC (C-terminal a.a. 73–96 deleted) to compound-immobilized beads (FLAG-fused VprΔC) | effect on Vpr functions (Vpr)
COc1ccc(S(=O)(=O)Nc2c(/C=C/c3ccncc3)cccc2OCCN)cc1 [compound B, (E)-4-[2-{3-(2-aminoethyloxy)-2-[N-(4-methoxybenzenesulfonyl)amino]phenyl}ethenyl]pyridine] | disappear almost completely | the cell cycle is arrested at the G2/M period | apparently increased | observed to bind | binds directly to the C-terminal region | not observed to bind | –
O=c1c(O)c(-c2ccc(O)c(O)c2)oc2cc(O)cc(O)c12 [quercetin] | – | – | – | – | – | – | inhibits Vpr functions
